From PMC6151407 (Molecules : A Journal of Synthetic Chemistry and Natural …, 2017)
Values after ≈ are worked out from the molar mass of the structure shown. Like-named read-outs stand apart in the source and are kept apart here.

What was measured:
AGE formation = experiment: Inhibition of AGE formation (bovine serum albumin with fructose and glucose, fluorescence); type: biochemical; conditions: 60 °C for 2 days, pH 7.4, mean ± S.D. (n = 3); for IC50: isolated compounds, read-out: IC50 AGEs Formation
Experimental: Inhibition of AGE formation was measured with a spectrophotometric method developed previously. All tested samples were dissolved in 10% DMSO at five different final concentrations (10–500 µg/mL for extracts and fractions or 10–500 µM for isolated constituents). The assay mixture contained bovine serum albumin (10 mg/mL), 50 mM phosphate buffer (pH 7.4) with 0.02% sodium azide, and 0.4 M fructose and glucose. The reaction was incubated at 60 °C for 2 days. After incubating, fluorescence was measured at an excitation wavelength of 350 nm and emission of 450 nm in a black 96-well plate. Aminoguanidine (AG), a typical inhibitor of AGE formation, was used as a positive control. The inhibitory activity was calculated with the following formula: (Ac − As/Ac) × 100, where Ac is the fluorescence of the control, and As is the fluorescence of the sample.

[1] = target: T1, electric eel AChE (EC3.1.1.7) (Electrophorus electricus, UniProt O42275); experiment: biochemical
T1 construct: purchased Sigma-Aldrich Chemical Company (St. Louis, MO, USA)
Experimental: (§1) n-Hexane (Hx), ethyl acetate (EA), n-butanol (BuOH), methanol (MeOH), ethanol (EtOH), and distilled water were used for extraction, fractionation, and open column chromatography. Open column chromatography used Sephadex LH-20 (25–100 μm; Pharmacia, Stockholm, Sweden), MCI CHP 20P (Supelco, St. Louis, MO, USA), and ODS gel (400–500 mesh; Waters, Milford, MA, USA). Dimethyl sulfoxide-d6 (DMSO-d6) and chloroform-d (CDCl3) were used for the NMR solution. MS was performed with ultra-high performance liquid chromatography and high-resolution mass spectrometry (UHPLC-HRMS) coupled with electrospray ionization hybrid linear trap-quadruple-Orbitrap MS (ESI/LTQ-Orbitrap) on an Ultimate 3000 rapid separation liquid chromatography (RSLC) system (Thermo, Darmstadt, Germany). ^1H- and ^13C-nuclear magnetic resonance (NMR) spectra were collected at 600 and 150 MHz, respectively, with a JEOL spectrometer. Chemical shifts are expressed as parts per million (ppm) on the δ scale, and coupling constants (J) are shown in Hertz. HPLC was conducted with Empower Pro 2.0 software (Waters, Milford, MA, USA), and determination was performed with a Waters 2695 system pump and Waters 996 Photodiode array detector (Waters, Milford, MA, USA). The separation column was a Waters Sunfire™ C18 column (4.6 × 250 mm, 5 μm). HPLC-grade solvents, such as acetonitrile (ACN), methanol (MeOH), and distilled water (H2O), were purchased from J. T. Baker® (Phillipsburg, PA, USA). HPLC-grade phosphoric acid and dimethyl sulfoxide (DMSO) were obtained from DEAJUNG Chemical (Siheung, Gyeonggi, Korea). Reagents and solvents including electric eel AChE (EC3.1.1.7), horse serum BChE (EC3.1.1.8), acetylthiocholine iodide (ACh), butyrylthiocholine chloride (BCh), 5,5′-dithiobis [2-nitrobenzoic acid] (DTNB), berberine, bovine serum albumin, aminoguanidine (AG), glucose, and fructose were purchased from Sigma-Aldrich Chemical Company (St. Louis, MO, USA). The BACE1 FRET assay kit (β-secretase) was purchased from PanVera Co. (Madison, WI, USA).
(§2) ChE activity was detected by AChE- or BChE-mediated hydrolysis of […] for 15 min to form thiocholine and the yellow 5-thio-2-nitrobenzoate anion. The result was quantified by measuring the absorbance 412 nm. The assay mixture contained 0.1 M potassium phosphate buffer (pH 7.8), 0.3 U/mL AChE or BChE, 0.5 mM DTNB, 0.6 mM ACh or BCh, and the sample for a total volume of 0.2 mL. All tested samples were dissolved in 10% DMSO at five different final concentrations (10–500 µg/mL for extracts and fractions or 10–500 µM for isolated constituents). The reaction was performed in a 96-well plate. […] Inhibitory activity was calculated with the following formula: (Ac − As/Ac) × 100, where Ac is the change in absorbance for the control after 15 min and As is the change in absorbance for the sample after 15 min.

[2] = target: T2, horse serum BChE (EC3.1.1.8) (Equus caballus, UniProt P81908); experiment: biochemical
T2 construct: horse serum BChE (EC3.1.1.8); purchased Sigma-Aldrich Chemical Company (St. Louis, MO, USA); host or cells: horse serum
Experimental: as §1, with “(DTNB), berberine, bovine serum albumin, aminoguanidine (AG), glucose, and fructose were purchased from Sigma-Aldrich Chemical Company (St. Louis, MO, USA).” left out
as §2

BACE1 = BACE1 (Homo sapiens, UniProt P56817); experiment: BACE1 FRET assay kit (β-secretase) inhibition; type: biochemical; conditions: isolated compounds; 60 min, room temperature, pH 4.5; mean ± S.D. (n = 3)
Experimental: as §1, with “(DTNB), berberine, bovine serum albumin, aminoguanidine (AG), glucose, and fructose were purchased from Sigma-Aldrich Chemical Company (St. Louis, MO, USA).” left out
BACE1 inhibition was measured with a commercially available spectrophotometric method according to the manufacturer’s recommended protocol. The assay mixture contained 50 mM sodium acetate buffer (pH 4.5), 1.0 U/mL BACE1, substrate (750 nM Rh-[…]-Quencher in 50 mM ammonium bicarbonate), and sample. […] The reaction was incubated for 60 min at room temperature in the dark. BACE1 activity was determined by measuring the proteolysis of two fluorophores (Rh-[…]-Quencher) to form a fluorescent donor (Rh-EVNL) with an excitation of 545 nm and emission of 585 nm in a black 96-well plate. […] Inhibition was calculated with the following formula: (Ac − As/Ac) × 100, where Ac is the change in fluorescence for the control after 60 min, and As is the change in fluorescence for the sample after 60 min.

[3] = isolated compounds, 15 min, pH 7.8, mean ± S.D. (n = 3), read-out: IC50 AChE (converted)
[4] = isolated compounds, 15 min, pH 7.8, mean ± S.D. (n = 3), read-out: IC50 BChE

BACE1, sequence (P56817 46-501): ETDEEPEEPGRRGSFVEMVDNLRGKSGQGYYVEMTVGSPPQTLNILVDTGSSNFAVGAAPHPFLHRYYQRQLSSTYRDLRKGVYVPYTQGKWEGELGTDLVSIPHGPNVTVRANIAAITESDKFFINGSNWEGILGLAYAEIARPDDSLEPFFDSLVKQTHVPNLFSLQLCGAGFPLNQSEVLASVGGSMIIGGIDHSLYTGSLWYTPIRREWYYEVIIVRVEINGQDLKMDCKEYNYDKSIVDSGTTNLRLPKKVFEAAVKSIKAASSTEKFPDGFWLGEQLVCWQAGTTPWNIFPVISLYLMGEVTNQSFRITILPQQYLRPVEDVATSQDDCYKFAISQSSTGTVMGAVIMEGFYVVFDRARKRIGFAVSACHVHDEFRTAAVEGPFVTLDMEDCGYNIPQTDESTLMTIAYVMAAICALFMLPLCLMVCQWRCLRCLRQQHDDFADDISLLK
T2 sequence (P81908 whole entry): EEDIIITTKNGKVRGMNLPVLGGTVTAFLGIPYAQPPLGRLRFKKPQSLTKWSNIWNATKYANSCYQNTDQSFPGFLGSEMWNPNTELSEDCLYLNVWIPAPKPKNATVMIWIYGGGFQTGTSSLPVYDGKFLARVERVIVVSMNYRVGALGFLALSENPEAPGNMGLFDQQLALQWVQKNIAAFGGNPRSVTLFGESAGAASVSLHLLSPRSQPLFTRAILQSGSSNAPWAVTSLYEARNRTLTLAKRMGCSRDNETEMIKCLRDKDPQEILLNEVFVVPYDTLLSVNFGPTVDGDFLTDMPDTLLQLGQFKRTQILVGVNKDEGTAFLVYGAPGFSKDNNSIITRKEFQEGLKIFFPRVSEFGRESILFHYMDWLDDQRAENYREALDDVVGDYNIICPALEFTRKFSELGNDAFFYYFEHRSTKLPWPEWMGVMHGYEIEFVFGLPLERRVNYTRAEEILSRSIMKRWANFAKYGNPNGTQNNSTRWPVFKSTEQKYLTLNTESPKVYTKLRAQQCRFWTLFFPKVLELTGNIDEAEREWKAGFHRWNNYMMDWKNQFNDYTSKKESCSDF
T1 sequence (O42275 24-633): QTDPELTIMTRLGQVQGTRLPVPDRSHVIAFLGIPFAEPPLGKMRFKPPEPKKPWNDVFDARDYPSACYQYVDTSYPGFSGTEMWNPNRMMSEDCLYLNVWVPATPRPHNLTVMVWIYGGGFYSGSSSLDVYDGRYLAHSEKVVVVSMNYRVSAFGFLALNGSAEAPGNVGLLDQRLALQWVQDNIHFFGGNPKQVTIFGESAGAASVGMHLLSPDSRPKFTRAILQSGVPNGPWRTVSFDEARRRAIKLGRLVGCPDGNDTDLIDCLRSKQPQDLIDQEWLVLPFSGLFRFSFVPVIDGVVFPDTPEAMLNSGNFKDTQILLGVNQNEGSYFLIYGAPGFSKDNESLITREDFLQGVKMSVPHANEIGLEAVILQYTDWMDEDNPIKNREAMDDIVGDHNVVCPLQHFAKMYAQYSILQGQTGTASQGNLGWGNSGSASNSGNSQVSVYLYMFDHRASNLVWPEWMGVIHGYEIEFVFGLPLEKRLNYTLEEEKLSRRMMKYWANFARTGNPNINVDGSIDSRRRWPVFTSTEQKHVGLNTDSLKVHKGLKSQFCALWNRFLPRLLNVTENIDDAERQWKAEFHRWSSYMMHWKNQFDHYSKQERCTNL

Row | SMILES | IC50 AGE Formation (AGE formation; extracts and fractions) | IC50 (AGE formation) | IC50 ([1]; extracts and fractions, 15 min, pH 7.8, mean ± S.D. (n = 3), read-out: IC50 AChE (converted)) | IC50 [1, 3] | IC50 [2, 4] | IC50 (BACE1) | IC50 ([1]; IC50 AChE) | IC50 ([2]; IC50 BChE)
1 | N=C(N)NN [AG, aminoguanidine, reference compound] | 104.87 ± 6.94 µg/mL (≈ 1420 µM) | 762 ± 69.1 µM |  |  |  |  |  | 
2 | COc1ccc2cc3[n+](cc2c1OC)CCc1cc2c(cc1-3)OCO2 [Berberine, berberine, reference compound] |  |  | 0.416 µM | 0.42 ± 0.03 µM |  |  |  | 
3 | COc1c(O)ccc2c1C(=O)c1ccccc1C2=O [Compound 1, alizarin-1-methyl ether] |  | 292.4 ± 2.28 µM |  | 175 ± 10.7 µM | 450 ± 8.82 µM | 192 ± 7.32 µM |  | 
4 | COc1c(O)cc2c(c1OC)C(=O)c1ccccc1C2=O [Compound 2, 1,2-dimethoxy-3-hydroxy anthraquinone] |  | 438 ± 23.9 µM |  | 147 ± 13.3 µM | 442 ± 10.6 µM | 115 ± 21.6 µM |  | 
5 | COc1ccc2c(c1)C(=O)c1ccccc1C2=O [Compound 3, 2-methoxy anthraquinone] |  | 88.4 ± 3.28 µM |  | 187 ± 20.1 µM | 230 ± 5.97 µM | 9.29 ± 1.92 µM |  | 
6 | COc1cc2c(cc1CO)C(=O)c1ccccc1C2=O [Compound 4, 2-hydroxymethyl-3-methoxy anthraquinone] |  | 530 ± 15.5 µM |  | 27 ± 1.49 µM | > 500 µM | > 200 µM |  | 
7 | O=C1c2ccccc2C(=O)c2cc(CO)c(O)cc21 [Compound 5, 2-hydroxymethyl-3-hydroxy anthraquinone] |  | 355 ± 12 µM |  | 19.1 ± 3.58 µM | 459 ± 13.1 µM | > 200 µM |  | 
8 | COc1c(C)c(O)cc2c1C(=O)c1ccccc1C2=O [Compound 6, rubiadin-1-methyl ether] |  | > 1000 µM |  | 87.2 ± 6.56 µM | > 500 µM | 25.9 ± 2.11 µM |  | 
9 | O=C1c2ccccc2C(=O)c2c(O)cc(CO)cc21 [Compound 7, 1-hydroxy-3-hydroxymethyl anthraquinone] |  |  |  | 96.4 ± 17.2 µM | > 500 µM |  |  | 
10 | Cc1c(O)cc2c(c1O)C(=O)c1ccccc1C2=O [Compound 8, rubiadin] |  | 522 ± 10.1 µM |  | 44.3 ± 12.2 µM | > 500 µM | 19.8 ± 3.05 µM |  | 
11 | COc1cc2ccc(=O)oc2cc1O [Compound 9, scopoletin] |  | 5.43 ± 0.11 µM |  | 236 ± 21.2 µM | 50.4 ± 1.61 µM | > 200 µM |  | 
12 | CC[C@H](CC[C@@H](C)[C@H]1CC[C@H]2[C@@H]3CC=C4C[C@@H](O)CC[C@]4(C)[C@H]3CC[C@]12C)C(C)C [Compound 10, β-sitosterol] |  |  |  |  |  |  | > 500 µM | > 500 µM
